Patent US9518052B2, “Pyrazolopyridines and pyrazolopyrimidines” (Pfizer Inc., priority 2014, dated 2016)
Structures can show the parent of a compound that is named as a salt.

Columns and labels:
Assay type in all cases: biochemical
Conditions in all cases: Caliper assay at 1 mM ATP
JAK1 = JAK1 (Homo sapiens (Human), UniProt P23458); assay: JAK Caliper Enzyme Assay at 1 mM ATP (JAK1)
JAK2 = JAK2 (Homo sapiens (Human), UniProt O60674); assay: JAK Caliper Enzyme Assay at 1 mM ATP (JAK2)
TYK2 = TYK2 (Homo sapiens (Human), UniProt P29597); assay: JAK Caliper Enzyme Assay at 1 mM ATP (TYK2)
Chain of TYK2 (P29597 whole entry, species assumed): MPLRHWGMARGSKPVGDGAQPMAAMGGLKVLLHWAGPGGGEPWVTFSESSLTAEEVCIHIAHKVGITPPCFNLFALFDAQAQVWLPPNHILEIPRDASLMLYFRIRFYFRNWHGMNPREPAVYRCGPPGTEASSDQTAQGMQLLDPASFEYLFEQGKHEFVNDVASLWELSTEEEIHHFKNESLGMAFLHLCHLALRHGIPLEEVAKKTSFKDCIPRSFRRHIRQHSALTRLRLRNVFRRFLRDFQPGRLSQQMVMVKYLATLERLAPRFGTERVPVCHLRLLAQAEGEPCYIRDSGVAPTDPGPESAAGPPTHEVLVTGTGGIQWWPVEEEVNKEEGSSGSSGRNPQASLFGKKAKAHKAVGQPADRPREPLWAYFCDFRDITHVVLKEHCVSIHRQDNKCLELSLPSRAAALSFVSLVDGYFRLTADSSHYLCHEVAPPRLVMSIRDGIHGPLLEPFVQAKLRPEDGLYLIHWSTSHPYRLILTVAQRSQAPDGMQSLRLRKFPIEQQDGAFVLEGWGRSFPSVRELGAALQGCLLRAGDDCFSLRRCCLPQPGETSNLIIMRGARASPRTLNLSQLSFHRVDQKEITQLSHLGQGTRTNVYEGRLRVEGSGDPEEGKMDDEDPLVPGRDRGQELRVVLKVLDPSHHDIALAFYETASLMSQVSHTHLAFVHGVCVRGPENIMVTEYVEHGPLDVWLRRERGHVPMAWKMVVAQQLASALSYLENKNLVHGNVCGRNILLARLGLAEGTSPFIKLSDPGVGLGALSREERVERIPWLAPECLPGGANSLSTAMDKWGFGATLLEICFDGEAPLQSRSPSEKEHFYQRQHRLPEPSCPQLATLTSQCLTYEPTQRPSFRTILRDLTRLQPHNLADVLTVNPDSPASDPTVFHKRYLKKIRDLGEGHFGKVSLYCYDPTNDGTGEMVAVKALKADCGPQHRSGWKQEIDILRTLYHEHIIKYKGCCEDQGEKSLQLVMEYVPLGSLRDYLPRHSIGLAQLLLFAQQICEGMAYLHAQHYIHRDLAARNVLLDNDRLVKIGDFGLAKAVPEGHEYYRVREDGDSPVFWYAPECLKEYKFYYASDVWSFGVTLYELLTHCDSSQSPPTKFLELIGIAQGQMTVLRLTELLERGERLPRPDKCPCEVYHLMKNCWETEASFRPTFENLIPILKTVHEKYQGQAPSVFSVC

JAK3 = JAK3 (Homo sapiens (Human), UniProt P52333); assay: JAK Caliper Enzyme Assay at 1 mM ATP (JAK3)
Chain of JAK3 (P52333 whole entry, species assumed): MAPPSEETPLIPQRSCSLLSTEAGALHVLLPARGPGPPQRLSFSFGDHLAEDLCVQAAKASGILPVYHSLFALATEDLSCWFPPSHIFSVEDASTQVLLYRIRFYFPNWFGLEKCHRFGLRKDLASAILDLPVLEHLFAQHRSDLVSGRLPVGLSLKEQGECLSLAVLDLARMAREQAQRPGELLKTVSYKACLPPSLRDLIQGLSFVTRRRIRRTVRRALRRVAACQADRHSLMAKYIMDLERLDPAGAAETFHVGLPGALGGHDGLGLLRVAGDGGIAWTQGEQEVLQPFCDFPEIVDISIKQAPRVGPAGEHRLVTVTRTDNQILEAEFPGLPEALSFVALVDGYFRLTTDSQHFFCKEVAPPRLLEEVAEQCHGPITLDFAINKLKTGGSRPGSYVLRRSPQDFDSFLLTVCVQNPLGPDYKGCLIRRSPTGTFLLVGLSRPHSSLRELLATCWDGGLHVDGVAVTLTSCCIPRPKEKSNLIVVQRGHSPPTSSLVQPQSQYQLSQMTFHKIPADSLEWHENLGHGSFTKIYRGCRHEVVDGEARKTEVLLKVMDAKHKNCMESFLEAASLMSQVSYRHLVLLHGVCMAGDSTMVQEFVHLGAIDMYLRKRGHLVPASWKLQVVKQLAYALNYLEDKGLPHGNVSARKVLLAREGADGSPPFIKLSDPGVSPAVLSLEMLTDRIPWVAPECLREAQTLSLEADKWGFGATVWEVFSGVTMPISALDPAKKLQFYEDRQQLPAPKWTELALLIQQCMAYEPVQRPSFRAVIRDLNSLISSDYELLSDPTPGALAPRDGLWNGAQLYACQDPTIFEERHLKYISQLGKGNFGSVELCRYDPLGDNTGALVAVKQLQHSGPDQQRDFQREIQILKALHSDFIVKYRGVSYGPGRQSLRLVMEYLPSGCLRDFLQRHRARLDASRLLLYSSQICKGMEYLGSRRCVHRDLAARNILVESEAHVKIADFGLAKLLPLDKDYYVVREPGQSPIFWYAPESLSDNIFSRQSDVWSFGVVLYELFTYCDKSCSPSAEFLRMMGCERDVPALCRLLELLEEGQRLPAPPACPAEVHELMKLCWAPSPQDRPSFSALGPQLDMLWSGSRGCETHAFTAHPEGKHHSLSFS

Chain of JAK1 (P23458 whole entry, species assumed): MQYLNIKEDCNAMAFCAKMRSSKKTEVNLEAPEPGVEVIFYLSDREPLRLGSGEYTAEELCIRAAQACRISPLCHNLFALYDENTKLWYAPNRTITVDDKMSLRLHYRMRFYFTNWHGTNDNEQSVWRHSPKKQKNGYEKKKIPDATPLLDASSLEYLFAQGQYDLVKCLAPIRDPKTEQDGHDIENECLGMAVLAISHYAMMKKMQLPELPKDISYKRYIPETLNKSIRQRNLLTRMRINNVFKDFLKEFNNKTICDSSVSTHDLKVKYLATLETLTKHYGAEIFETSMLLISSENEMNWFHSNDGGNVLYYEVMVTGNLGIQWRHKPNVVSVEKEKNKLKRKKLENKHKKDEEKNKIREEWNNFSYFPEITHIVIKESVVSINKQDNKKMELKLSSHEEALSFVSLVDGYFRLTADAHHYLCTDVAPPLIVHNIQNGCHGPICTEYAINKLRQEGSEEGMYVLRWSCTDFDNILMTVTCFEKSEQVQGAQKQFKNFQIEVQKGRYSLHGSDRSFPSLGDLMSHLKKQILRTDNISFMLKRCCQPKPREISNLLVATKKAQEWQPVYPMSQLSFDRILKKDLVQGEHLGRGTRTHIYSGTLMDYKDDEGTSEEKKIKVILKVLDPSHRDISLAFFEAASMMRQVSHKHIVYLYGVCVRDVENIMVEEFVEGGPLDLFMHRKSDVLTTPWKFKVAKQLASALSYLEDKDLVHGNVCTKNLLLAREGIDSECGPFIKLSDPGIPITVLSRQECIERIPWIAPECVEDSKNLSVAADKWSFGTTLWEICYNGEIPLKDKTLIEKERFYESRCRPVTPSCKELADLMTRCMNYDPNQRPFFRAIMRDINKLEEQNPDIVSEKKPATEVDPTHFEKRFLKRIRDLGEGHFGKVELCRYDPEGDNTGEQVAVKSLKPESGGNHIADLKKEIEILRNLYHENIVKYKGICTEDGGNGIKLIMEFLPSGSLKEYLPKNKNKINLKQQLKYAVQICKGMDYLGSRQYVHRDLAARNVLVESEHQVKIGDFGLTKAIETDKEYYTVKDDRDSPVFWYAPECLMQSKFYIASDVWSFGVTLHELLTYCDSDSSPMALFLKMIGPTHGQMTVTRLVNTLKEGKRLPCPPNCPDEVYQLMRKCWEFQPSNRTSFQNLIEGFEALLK
Chain of JAK2 (O60674 whole entry, species assumed): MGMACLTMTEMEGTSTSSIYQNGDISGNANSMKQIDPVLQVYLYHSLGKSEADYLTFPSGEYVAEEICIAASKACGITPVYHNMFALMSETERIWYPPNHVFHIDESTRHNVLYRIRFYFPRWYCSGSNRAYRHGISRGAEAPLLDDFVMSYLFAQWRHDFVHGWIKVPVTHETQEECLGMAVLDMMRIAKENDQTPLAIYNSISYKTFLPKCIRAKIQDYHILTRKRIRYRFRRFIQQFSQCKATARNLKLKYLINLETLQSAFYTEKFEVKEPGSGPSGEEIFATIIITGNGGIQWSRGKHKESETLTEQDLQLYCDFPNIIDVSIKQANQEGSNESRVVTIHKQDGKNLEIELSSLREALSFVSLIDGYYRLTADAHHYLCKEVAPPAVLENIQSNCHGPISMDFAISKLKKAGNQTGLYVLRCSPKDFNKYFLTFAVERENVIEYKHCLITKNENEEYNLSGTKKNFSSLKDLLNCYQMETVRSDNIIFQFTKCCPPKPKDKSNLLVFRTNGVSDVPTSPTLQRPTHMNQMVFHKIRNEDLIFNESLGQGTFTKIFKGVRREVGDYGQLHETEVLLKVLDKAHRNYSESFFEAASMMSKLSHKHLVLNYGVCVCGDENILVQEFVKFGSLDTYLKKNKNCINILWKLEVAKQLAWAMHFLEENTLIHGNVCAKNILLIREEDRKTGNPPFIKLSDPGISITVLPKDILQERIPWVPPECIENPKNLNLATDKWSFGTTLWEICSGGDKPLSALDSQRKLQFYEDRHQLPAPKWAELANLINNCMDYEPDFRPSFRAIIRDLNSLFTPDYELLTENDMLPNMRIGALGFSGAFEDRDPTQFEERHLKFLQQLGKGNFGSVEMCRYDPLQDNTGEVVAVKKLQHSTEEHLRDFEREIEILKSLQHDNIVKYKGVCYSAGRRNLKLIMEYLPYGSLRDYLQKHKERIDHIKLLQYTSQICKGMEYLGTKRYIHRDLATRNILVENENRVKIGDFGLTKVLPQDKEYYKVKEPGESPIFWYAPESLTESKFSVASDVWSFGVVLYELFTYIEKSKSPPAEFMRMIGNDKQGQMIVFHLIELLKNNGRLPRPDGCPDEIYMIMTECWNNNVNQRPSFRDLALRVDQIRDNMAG

IC50 (JAK1) | IC50 (JAK2) | IC50 (TYK2) | IC50 (JAK3) | SMILES
4.3 nM | 10.1 nM | 229 nM | 16.8 nM | CCc1cc(O)ccc1-c1cc2[nH]ncc2c(N2CC(C)(O)C2)n1 [Example 115, 1-[6-(2-ethyl-4-hydroxyphenyl)-1H-pyrazolo[4,3-c]pyridin-4-yl]-3-methylazetidin-3-ol formate]
3.8 nM | 10.1 nM | 163 nM | 23.3 nM | CCc1cc(O)ccc1-c1cc2[nH]ncc2c(N2CCc3ccc(S(=O)(=O)NCCN4CCCC4)cc3C2)n1 [Example 116, 2-[6-(2-ethyl-4-hydroxyphenyl)-1H-pyrazolo[4,3-c]pyridin-4-yl]-N-[2-(pyrrolidin-1-yl)ethyl]-1,2,3,4-tetrahydroisoquinoline-7-sulfonamide formate]
3.3 nM | 4.5 nM | 82.1 nM | 9.5 nM | CCc1cc(O)ccc1-c1cc2[nH]ncc2c(N2CCc3c(cccc3NS(C)(=O)=O)C2)n1 [Example 123, N-{2-[6-(2-ethyl-4-hydroxyphenyl)-1H-pyrazolo[4,3-c]pyridin-4-yl]-1,2,3,4-tetrahydroisoquinolin-5-yl}methanesulfonamide formate]
< 0.5 nM | 2.1 nM | 4.7 nM | 10.2 nM | CCc1cc(O)c(F)cc1-c1cc2[nH]ncc2c(NCc2ccccc2N(C)S(C)(=O)=O)n1 [Example 131, N-[2-({[6-(2-Ethyl-5-fluoro-4-hydroxyphenyl)-1H-pyrazolo[4,3-c]pyridin-4-yl]amino}methyl)phenyl]-N-methylmethanesulfonamide]
19 nM | 31.4 nM | 1290 nM | 18.4 nM | CCc1cc(O)c(F)cc1-c1cc2[nH]ncc2c(NCc2cc(C)ccc2N(C)S(C)(=O)=O)n1 [Example 132, N-[2-({[6-(2-ethyl-5-fluoro-4-hydroxyphenyl)-1H-pyrazolo[4,3-c]pyridin-4-yl]amino}methyl)-4-methylphenyl]-N-methylmethanesulfonamide hydrochloride]
1.2 nM | 5.9 nM | 249 nM | 30.5 nM | CCc1cc(O)c(F)cc1-c1cc2[nH]ncc2c(NCc2cc(Cl)ccc2N(C)S(C)(=O)=O)n1 [Example 133, N-[4-chloro-2-({[6-(2-ethyl-5-fluoro-4-hydroxyphenyl)-1H-pyrazolo[4,3-c]pyridin-4-yl]amino}methyl)phenyl]-N-methylmethanesulfonamide hydrochloride]
< 0.5 nM | 1.7 nM | 20.3 nM | 7.6 nM | CCc1cc(O)c(F)cc1-c1cc2[nH]ncc2c(NCc2c(F)cccc2N(C)S(C)(=O)=O)n1 [Example 134, N-[2-({[6-(2-ethyl-5-fluoro-4-hydroxyphenyl)-1H-pyrazolo[4,3-c]pyridin-4-yl]amino}methyl)-3-fluorophenyl]-N-methylmethanesulfonamide hydrochloride]
0.8 nM | 4.3 nM | 8.7 nM | 22.4 nM | CCc1cc(O)c(F)cc1-c1cc2[nH]ncc2c(NCc2ccccc2N(CC)S(=O)(=O)CC)n1 [Example 136, N-ethyl-N-[2-({[6-(2-ethyl-5-fluoro-4-hydroxyphenyl)-1H-pyrazolo[4,3-c]pyridin-4-yl]amino}methyl)phenyl]ethanesulfonamide hydrochloride]
< 0.1 nM | 0.3 nM | 45.4 nM | 3.3 nM | CCCN(c1ccccc1CNc1nc(-c2cc(F)c(O)cc2CC)cc2[nH]ncc12)S(C)(=O)=O [Example 137, N-[2-({[6-(2-Ethyl-5-fluoro-4-hydroxyphenyl)-1H-pyrazolo[4,3-c]pyridin-4-yl]amino}methyl)phenyl]-N-propylmethanesulfonamide]
3.4 nM | 7.9 nM | 885 nM | 27.9 nM | CCc1cc(O)c(F)cc1-c1cc2[nH]ncc2c(N(C)Cc2cc(C)ccc2N(CC)S(C)(=O)=O)n1 [Example 142, N-ethyl-N-[2-({[6-(2-ethyl-5-fluoro-4-hydroxyphenyl)-1H-pyrazolo[4,3-c]pyridin-4-yl](methyl)-amino}methyl)-4-methylphenyl]methanesulfonamide]
40.4 nM | 43.6 nM | 4660 nM | 122 nM | CCc1cc(O)c(F)cc1-c1cc2[nH]ncc2c(N(CC)Cc2cc(C)ccc2N(C)S(C)(=O)=O)n1 [Example 143, N-[2-({ethyl[6-(2-ethyl-5-fluoro-4-hydroxyphenyl)-1H-pyrazolo[4,3-c]pyridin-4-yl]amino}methyl)-4-methylphenyl]-N-methylmethanesulfonamide]
55.3 nM | 70.7 nM | 8730 nM | 186 nM | CCCN(Cc1cc(C)ccc1N(C)S(C)(=O)=O)c1nc(-c2cc(F)c(O)cc2CC)cc2[nH]ncc12 [Example 144, N-[2-({[6-(2-ethyl-5-fluoro-4-hydroxyphenyl)-1H-pyrazolo[4,3-c]pyridin-4-yl](propyl)amino}-methyl)-4-methylphenyl]-N-methylmethanesulfonamide]
1 nM | 4.5 nM | 15.8 nM | 16.2 nM | CCc1cc(O)c(F)cc1-c1cc2[nH]ncc2c(N(C)Cc2ccccc2N(CC)S(C)(=O)=O)n1 [Example 145, N-Ethyl-N-[2-({[6-(2-ethyl-5-fluoro-4-hydroxyphenyl)-1H-pyrazolo[4,3-c]pyridin-4-yl](methyl)amino}methyl)phenyl]methanesulfonamide hydrochloride]
0.9 nM | 5.1 nM | 49.9 nM | 19.1 nM | CCc1cc(O)c(F)cc1-c1cc2[nH]ncc2c(N(C)Cc2ccccc2N(C)S(C)(=O)=O)n1 [Example 146, N-[2-({[6-(2-Ethyl-5-fluoro-4-hydroxyphenyl)-1H-pyrazolo[4,3-c]pyridin-4-yl](methyl)amino}methyl)phenyl]-N-methylmethanesulfonamide hydrochloride]
1.1 nM | 4.7 nM | 49.4 nM | 18.5 nM | CCc1cc(O)c(F)cc1-c1cc2[nH]ncc2c(NCc2ccccc2N(CCO)S(C)(=O)=O)n1 [Example 147, N-[2-({[6-(2-Ethyl-5-fluoro-4-hydroxyphenyl)-1H-pyrazolo[4,3-c]pyridin-4-yl]amino}methyl)phenyl]-N-(2-hydroxyethyl)methanesulfonamide]
1.8 nM | 6.3 nM | 146 nM | 22.8 nM | CN(c1ccccc1CNc1nc(-c2cc(F)c(O)cc2CC(F)(F)F)cc2[nH]ncc12)S(C)(=O)=O [Example 148, N-{2-[({6-[5-Fluoro-4-hydroxy-2-(2,2,2-trifluoroethyl)phenyl]-1H-pyrazolo[4,3-c]pyridin-4-yl}amino)methyl]phenyl}-N-methylmethanesulfonamide]
2.7 nM | 14.5 nM | 764 nM | 22.7 nM | CN(c1ccccc1CNCc1nc(-c2cc(F)c(O)cc2CC(F)(F)F)cc2[nH]ncc12)S(C)(=O)=O [Example 149]
21.6 nM | 48.9 nM | 4160 nM | 77.8 nM | Cc1ccc(N(C)S(C)(=O)=O)c(CNc2nc(-c3cc(F)c(O)cc3CC(F)(F)F)cc3[nH]ncc23)c1 [Example 150, N-{2-[({6-[5-Fluoro-4-hydroxy-2-(2,2,2-trifluoroethyl)phenyl]-1H-pyrazolo[4,3-c]pyridin-4-yl}amino)methyl]-4-methylphenyl}-N-methylmethanesulfonamide]
